Test results: paper PMC9029529, “Distinct Mechanisms of Cytotoxicity in Novel Nitrogenous Heterocycles: Future Directions for a New Anti-Cancer Agent” (Molecules, 2022)
Read-outs that look alike come from different tables or passages of the source.

Key:
MDA-MB-231 cells [1] = assay: CellTiter-Glo assay, MDA-MB-231; type: cell-based; conditions: Homo sapiens, 24 h, read-out: IC50 Breast Cancer MDA-MB-231
Experimental: (§1) To validate the anti-proliferative activity of the imidazole derivatives, the compounds were tested against several cancer cell lines, which included breast cancer (MDA-MB-231, KAIMRC1, and KAIMRC2), colorectal cancer (HCT8), and acute promyelocytic leukemia cells (HL60). KAIMRC1 was isolated from a person with stage II-B breast cancer and is ER+/PR+ and HER2-. In comparison, KAIMRC2 was isolated from a person with metastasized breast cancer and is a triple-negative (ER-/PR-, and HER2-) tumor cell line.
(§2) The CellTiter-Glo assay (Promega™, Madison, WI, USA) was used to evaluate imidazole and oxazolone derivatives cytotoxicity against various cancer cell lines; MCF-10A, HL60, MDA-MB-231, and HCT8, purchased from ATCC, USA, except KAIMRC1 and KAIMRC2, which were isolated, established, and characterized in the core laboratory facility KAIMRC, Riyadh, Saudi Arabia. The cells were seeded in white 96-well plates at a density of 5 × 10^3 cells/well in a 100 μL of growth medium with various concentrations of each compound ranging from 0 to 250 µM. Cells were incubated at 37 °C for 24 h. Plates were equilibrated at RT for 30 min. A quantity of 100 µL of CellTiter-Glo reagent was added to each well and mixed for 2 min on an orbital shaker. Plates were incubated for 10 min at RT before measuring the luminescence using an Envision plate reader (Perkin Elmer). Half-maximal inhibitory concentration IC50 values (μM) were calculated for each imidazole derivative from the dose–response curve. The cytotoxic effect at a concentration <10 µM was considered strongly active and from 11 to 100 µM was considered moderately active, whereas above 100 µM was deemed non-active. Mitoxantrone was utilized as a positive control. Experiments were performed in triplicates.

HCT8 cells [2] = assay: CellTiter-Glo assay, HCT8; type: cell-based; conditions: Homo sapiens, HCT-8, 24 h, read-out: IC50 Colorectal Cancer HCT8
Experimental: as §1, §2

HL60 cells [3] = assay: High-content imaging (HCI) cell health / apoptosis assay; type: cell-based, human; conditions: for viability at 31.25 µM / viability at 62.5 µM / viability at 125 µM: Homo sapiens, HL-60, HCI Cell Health, read-out: HL60 Cell Line % Cell Viability; for viability at 31.25 µM / viability at 62.5 µM / viability at 125 µM / apoptosis in HL60 cells (HCI): 48 h; for apoptosis in HL60 cells (HCI): increasing concentrations 31.25-125 µM, compared with control
Experimental: Figure 5A depicts a dose-dependent increase in cell shrinkage/condensing, and necrotic cells are also visible. […] Furthermore, even at the lowest concentration, 31.25 µM, compound 9 was more efficacious than compound 8 since there appeared to be fewer healthy cells (blue and green staining) and a greater level of shrinkage. Moreover, Figure 5B depicts the HCI Cell Health determined by means of digital analysis, displaying the HL60 percentage cell viability as a function of increasing drug concentrations.
Figure 5 HCI-based apoptosis assay. (A) HL60 cells were treated with three concentrations (31.25 µM, 62.5 µM, and 125 µM) of compounds # 8 (a–c), # 9 (d–f), and PBS for the negative control (g) for 48 h. The nucleus (blue) was stained with HOECHST 33342, the cytoplasm (Green) was stained with Calcein AM, and dead cells (Red) were stained with Propidium Iodide (PI). […] (B) HCI Cell Health Digital Analysis MetaXpress software generated the graph quantifying the cell viability, seen in B, as a percentage of HL60 cells treated with the compounds. […] TEXT PRINTED IN THE PICTURE: (B) Compound # 8: HL60 Cell Line % Cell Viability: 64.5 (125μM); HL60 Cell Line % Cell Viability: 87.4 (62.5μM); HL60 Cell Line % Cell Viability: 94.6 (31.25μM) | (B) Compound # 9: HL60 Cell Line % Cell Viability: 45.7 (125μM); HL60 Cell Line % Cell Viability: 56.9 (62.5μM); HL60 Cell Line % Cell Viability: 79.9 (31.25μM) | (B) Control: HL60 Cell Line % Cell Viability: 98.5
HL60 cells were seeded in a 96-well plate at a density of 20,000 cells per well. The cells were treated with compounds 8 and 9 and negative control (PBS) for 48 h. Three graded concentrations were used for the treatment, 31.25 µM, 62.5 µM, and 125 µM. After the treatment, the cells were stained with Calcein AM (2 µg/mL), HOECHST33342 (2.5 µg/mL), and Propidium Iodide (2.5 µg/mL) for 45 min at 37 °C and 5% CO2. Plates were imaged on a Molecular Devices ImageXpress® Microsystem, and the acquired image data were analyzed using MetaXpress® software, Molecular Devices, Downingtown, PA, USA. The Cell Health module available in the MetaXpress software was used to measure the percentage viability of live and dead cells. Experiments were performed in triplicates.

HL60 cells [4] = assay: CellTiter-Glo assay, HL60; type: cell-based, human; conditions: read-out: IC50 Leukemia HL60
Experimental: as §1, §2

MDA-MB-231 cells [5] = assay: MTT assay, MDA-MB-231; type: cell-based, human; conditions: 0 to 250 μM, read-out: IC50 Breast Cancer (MDA-MB-231)
Experimental: (§3) To establish the cytotoxic effect of the nitrogenous derivatives, cells were treated with various concentrations of the drugs ranging from 0 to 250 μM. Following a 24 h incubation period, cell viability was assessed using the MTT assay. Mitoxantrone served as a positive control to evaluate growth inhibition. Since heterogeneity is a hallmark of cancer, the study included cell lines with diverse genomic and proteomic profiles. […] In this regard, further optimization would be required to increase the selective therapeutic potential of compound 9. To determine whether the anti-proliferative effect of the nitrogen derivatives could be translated to other malignancies, we tested the cytotoxic effect on the HCT8 (colorectal cancer) cell line. HCT8 is an adenocarcinoma driven by the Kirsten Rat Sarcoma (KRAS) mutation, unlike MCF-10A [28].
(§4) The MTT assay was utilized to examine the imidazole derivatives’ anti-proliferative activity against MCF-10A, MDA-MB-231, and HCT8 cell lines, purchased from ATCC, USA [47]. Firstly, 5 × 10^3 cells/well were seeded in a 96-well plate in 100 μL of growth medium and were subsequently cultured overnight with various concentrations of each compound ranging from 0 to 250 µM [48]. The media was aspirated, and 50 µL of serum-free media and 50 µL of MTT solution were added to each well. Next, cells were incubated at 37 °C for 3 h, then 150 µL of MTT solvent was added into each well. After that, plates were wrapped in foil and agitated for 15 min on an orbital shaker. Finally, the absorbance was measured within 1 h at OD590 nm. Half-maximal inhibitory concentration IC50 values (μM) were calculated for each compound from the dose–response curve. Experiments were performed in triplicates.

HCT8 cells [6] = assay: MTT assay, HCT8; type: cell-based; conditions: Homo sapiens, HCT-8, 24 h, 0 to 250 μM, read-out: IC50 Colorectal Cancer (HCT8)
Experimental: as §3, §4

KAIMRC1 cells = assay: CellTiter-Glo assay, KAIMRC1; type: cell-based; conditions: Homo sapiens, 24 h, read-out: IC50 Breast Cancer KAIMRC1
Experimental: as §1, §2

Structure (SMILES)	IC50 (MDA-MB-231 cells [1]) [µM]	IC50 (HCT8 cells [2]) [µM]	viability at 31.25 µM (HL60 cells [3]) [%]	viability at 62.5 µM (HL60 cells [3]) [%]	viability at 125 µM (HL60 cells [3]) [%]	apoptosis in HL60 cells (HCI) (HL60 cells [3])	IC50 (HL60 cells [4]; 24 h) [µM]	IC50 (HL60 cells [4]; Homo sapiens, HL-60, 24 h) [µM]	IC50 (MDA-MB-231 cells [5]; 24 h) [µM]	IC50 (MDA-MB-231 cells [5]; Homo sapiens, MDA-MB-231, 24 h) [µM]	IC50 (HCT8 cells [6]) [µM]	IC50 (KAIMRC1 cells) [µM]	cytotoxic efficacy (HL60 cells [3]; 31.25 µM, HL60, 48 h)	cytotoxicity (HL60 cells [3]; 62.5 µM, HL60, 48 h)
O=C1/C(=C/c2ccccc2)N=C(c2ccccc2)N1Nc1ccc([N+](=O)[O-])cc1[N+](=O)[O-] [Compound 8]	19	33.1	94.6	87.4	64.5	led to apoptosis	9.24	9.23	4.76	4.7	29.5	10.2	–	–
COc1cccc(/C=C2\N=C(c3ccccc3)N(Nc3ccc([N+](=O)[O-])cc3[N+](=O)[O-])C2=O)c1 [Compound 9]	39.2	22.1	79.9	56.9	45.7	led to apoptosis	8.63	8.63	–	17	13.2	22.2	approximately 20%	approximately 54%
